One test deals with T1, Estrogen receptor (Homo sapiens, UniProt P03372).
T1 sequence (P03372 whole entry): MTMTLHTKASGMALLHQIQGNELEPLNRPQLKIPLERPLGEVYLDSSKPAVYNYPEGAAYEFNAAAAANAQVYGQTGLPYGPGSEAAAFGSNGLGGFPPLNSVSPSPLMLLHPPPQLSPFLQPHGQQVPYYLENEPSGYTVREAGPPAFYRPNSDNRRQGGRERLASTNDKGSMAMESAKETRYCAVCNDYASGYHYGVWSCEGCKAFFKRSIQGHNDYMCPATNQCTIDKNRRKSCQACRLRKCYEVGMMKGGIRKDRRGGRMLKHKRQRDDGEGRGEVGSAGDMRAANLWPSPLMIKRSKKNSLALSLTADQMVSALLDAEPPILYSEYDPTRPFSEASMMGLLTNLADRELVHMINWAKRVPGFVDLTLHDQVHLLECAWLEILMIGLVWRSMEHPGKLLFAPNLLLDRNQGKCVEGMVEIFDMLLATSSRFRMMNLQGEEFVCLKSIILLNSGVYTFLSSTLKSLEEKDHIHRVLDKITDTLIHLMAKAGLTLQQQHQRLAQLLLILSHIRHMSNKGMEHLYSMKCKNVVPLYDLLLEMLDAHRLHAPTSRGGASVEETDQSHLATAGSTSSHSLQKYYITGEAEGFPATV

In test [1] the target is T2, Estrogen receptor beta (Homo sapiens, UniProt Q92731).
Description: Binding affinity towards human estrogen receptor beta (ERbeta)
Test [2] addresses T3, Estrogen receptor (Homo sapiens) (UniProt P03372).
T3 sequence (whole entry): T1 sequence (P03372 whole entry)
Kind of test: Effective dose in ERalpha-MCF-7 cells. In kind it is functional, cell-based.

Test [3] concerns the target T3, Estrogen receptor (Homo sapiens). Nature of the test: Efficacy in ER alpha-MCF-7 cells. It is filed as functional, cell-based.
In test [4] the target is T2, Estrogen receptor beta. Kind of test: Effective dose in metallothionein-II using metallothionein assay.

A value given as a limit tells only on which side of the number the result lay.

T2 sequence (Q92731 whole entry): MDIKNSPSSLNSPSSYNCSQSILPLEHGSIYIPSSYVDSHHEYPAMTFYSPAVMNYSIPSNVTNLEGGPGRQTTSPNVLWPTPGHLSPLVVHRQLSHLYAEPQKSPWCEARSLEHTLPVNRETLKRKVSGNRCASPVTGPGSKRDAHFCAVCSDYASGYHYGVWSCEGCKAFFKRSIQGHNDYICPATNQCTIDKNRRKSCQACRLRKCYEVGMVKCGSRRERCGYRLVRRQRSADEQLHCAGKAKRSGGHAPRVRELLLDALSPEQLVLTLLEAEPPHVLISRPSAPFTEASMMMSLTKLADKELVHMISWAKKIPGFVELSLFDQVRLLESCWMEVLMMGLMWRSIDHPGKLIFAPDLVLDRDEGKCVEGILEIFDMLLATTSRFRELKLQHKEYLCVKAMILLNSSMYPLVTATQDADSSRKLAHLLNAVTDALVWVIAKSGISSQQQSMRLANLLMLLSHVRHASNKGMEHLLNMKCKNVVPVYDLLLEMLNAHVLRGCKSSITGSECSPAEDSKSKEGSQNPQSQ

The compound `O=c1c2ccc(O)cc2oc2c1oc1ccccc12` returned a half-inhibitory concentration (IC50) on Estrogen receptor of more than 5000 nM.
On the same count and under the same terms, the figure for `O=c1c2ccccc2oc2c1oc1cc(O)ccc12` is more than 5000 nM.
`N#Cc1cc(O)cc2c1oc1c(=O)c3c(O)cc(O)cc3oc12`: the IC50 at Estrogen receptor beta [1] came to 1340 nM; on Estrogen receptor, 1550 nM.
Turning to `O=c1c2oc3c(Br)cc(O)cc3c2oc2cc(O)cc(O)c12`, the IC50 at Estrogen receptor beta [1] is 343 nM; against Estrogen receptor, 1260 nM.
With `O=c1c2oc3ccc(O)cc3c2oc2cc(O)cc(O)c12`, the ED50 in test [2] was more than 500 nM; at Estrogen receptor beta [4], 18 nM. For the same compound, the Efficacy in test [3] worked out at 58%. Further, it took 42 nM to reach half-maximal inhibition against Estrogen receptor beta [1] (IC50).
For the compound `O=c1c2ccc(O)cc2oc2c1oc1c(Br)cc(O)cc12`, the results for the IC50 on Estrogen receptor beta [1] and on Estrogen receptor were 1740 nM and more than 5000 nM, respectively.
In the case of `N#Cc1cc(O)cc2c1oc1c(=O)c3ccc(O)cc3oc12`, the IC50 against Estrogen receptor beta [1] and against Estrogen receptor was more than 5000 nM each time.
`O=c1c2cc(O)ccc2oc2c1oc1ccc(O)cc12` displayed an IC50 against Estrogen receptor of 180 nM. This counts as sub-micromolar.
In the case of `O=c1c2c(O)cc(O)cc2oc2oc3cc(O)ccc3c12`, inhibition against Estrogen receptor beta [1] was half-maximal at 1.7 nM (IC50).

(Values after ChEMBL document CHEMBL1136115, “Constrained phytoestrogens and analogues as ERbeta selective ligands” (Bioorg Med Chem Lett, 2003).)
